# Laboratory results: patent US20090246776A1, “Modulators of scarb-1 for treating acne or hyperseborrhea” (GALDERMA RESEARCH & DEVELOPMENT, priority 2006, published 2009)
# Test system: SCARB-1 gene
# Settings: gonadectomized male mice, short-term treatment; effect not visible at 18, 24, 48 and 96 hours
# Procedure: The expression of the genes was analyzed on an Affymetrix station (microfluidic model; hybridization oven; scanner; computer) following the protocols provided by the company. Briefly, the total RNA isolated from the tissues is transcribed to cDNA. From the double-stranded cDNA, a cRNA labeled with biotin is synthesized using T7 polymerase and a precursor NTP conjugated to biotin. The cRNAs are then fragmented to small sized fragments. All the molecular biology steps are checked using the Agilent “Lab on a chip” system in order to confirm the good efficiencies of the enzymatic reactions. The Affymetrix chip is hybridized with the biotinylated cRNA, rinsed and then fluorescence labeled using a fluorophore conjugated to streptavidin. After washings, the chip is scanned and the results are calculated using the MAS5 software provided by Affymetrix. An expression value is obtained for each gene as well as the indication of the significance of the value obtained.
# B. Male mice were gonadectomized and treated with the vehicle or DHT. A kinetic study of the expression of the gene from 15 minutes to 96 hours was carried out. For this, the preputial glands were removed for a period ranging up to 4 days (androgenic treatment alone observation of a short-term kinetics), the RNA was isolated and the expression of the genes was analyzed by the Affymetrix technique (FIG. 2).
compound,measurement,value
"C[C@]12CCC(=O)C[C@@H]1CC[C@@H]1[C@@H]2CC[C@]2(C)[C@@H](O)CC[C@@H]12 [DHT, Dihydrotestosterone]",mRNA for SCARB-1 in the mouse preputial gland,not induced
